# In patent publication US4698350A, “1-ethyl-6-fluoro-1,4-dihydro- 7-(2,6-dimethyl-4-pyridinyl)-4-oxo-3-quinolinecarboxylic acid and antibacterial use thereof” (Sterling Drug Inc., priority 1984, dated 1987):
# Structures can show the parent of a compound that is named as a salt. Where two headings read alike, the source gives them in different places.
# Legend:
# Assay in all cases: In vitro antibacterial MIC/MBC test
# Format in all cases: cell-based
# S. epidermidis 1-3-H = details: Staphylococcus epidermidis, 13H
# Description: (§1) Win 52,522 and Win 35,439 were solubilized in 0.1 ml of 0.5 N NaOH/mg of compound and diluted in sterile distilled water to 160 mcg/ml. Vancomycin and methicillin were solubilized in sterile distilled water to 1250 mcg/ml of base compound. The stock solutions were sterilized by filtration through membrane filters with a 0.45 μm pore size.
# (§2) The bacterial cultures listed in Table I (hereinbelow) were grown overnight at 37° C. in MHB for all cultures except the Streptococcus strains. These were grown in BHI+10% NHS. The overnight broth cultures were adjusted to an optical density of 0.10 (650 nm, B L Spectronic 20) in sterile distilled water and subsequently diluted to 6.7×10^6 cells/ml in MHB or BHI+1% NHS.
# (§3) Serial two-fold dilutions of the compound solutions were prepared in MHB (or in BHI+1% NHS for tests with Streptococci) and dispensed into 96-well microtiter trays in a volume of 0.1 ml/well using a Sandy Springs (Bellco Glass Co.) dispenser. The trays were then inoculated with 0.0015 ml of a suspension containing 6.7×10^6 cells/ml of the appropriate inoculum using a MIC-2000 inoculator (Dynatech Corp.) resulting in a final inoculum of approximately 1×10^4 cells/well or 1×10^5 cells/ml. The trays were incubated at 37° C. for 18-20 hours and the minimal inhibitory concentration (MIC), defined as the lowest concentration of compound to inhibit visible bacterial growth, was recorded.
# (§4) After the MIC values were recorded, the contents in the microtiter trays were thoroughly mixed on a Bellco Mini-orbital Shaker (Bellco Glass Co.) for 3 min. at a setting of 8. A portion (0.0015 ml) from each well was then transferred via an MIC-2000 inoculator to plates containing MHA or BHI agar+10% NHS. The plates were incubated at 37° C. for 18-20 hrs. The minimal bactericidal concentration (MBC), defined as the lowest concentration of compound that prevented the formation of a recognizable colony on the agar surface, was recorded.
# S. faecalis 4510 = details: Enterococcus faecalis
# Description: as §1, §2, §3, §4
# S. aureus (25923) = details: Staphylococcus aureus, ATCC25923
# Description: as §1, §2, §3, §4
# S. aureus Glorgio = details: Staphylococcus aureus
# Description: as §1, §2, §3, §4
# S. aureus 24-81 = details: Staphylococcus aureus, 2481
# Description: as §1, §2, §3, §4
# S. aureus 59-81 = details: Staphylococcus aureus, 5981
# Description: as §1, §2, §3, §4
# S. aureus 4-81 = details: Staphylococcus aureus, 481
# Description: as §1, §2, §3, §4
# S. epidermidis (12228) = details: Staphylococcus epidermidis, ATCC12228
# Description: as §1, §2, §3, §4
# S. aureus 21-81A = details: Staphylococcus aureus, 2181A
# Description: as §1, §2, §3, §4
# S. aureus S-500 = details: Staphylococcus aureus, S500
# Description: as §1, §2, §3, §4
# S. pyogenes (89) = details: Streptococcus pyogenes
# Description: as §1, §2, §3, §4
# S. epidermidis 1-5-H = details: Staphylococcus epidermidis, 15H
# Description: as §1, §2, §3, §4
# S. pyogenes C203 = details: Streptococcus pyogenes
# Description: as §1, §2, §3, §4
# S. aureus 39881 = details: Staphylococcus aureus
# Description: as §1, §2, §3, §4
# S. aureus 41-81 = details: Staphylococcus aureus, 4181
# Description: as §1, §2, §3, §4
# S. epidermidis 2-1-B = details: Staphylococcus epidermidis, 21B
# Description: as §1, §2, §3, §4
# S. faecalis (11700) = details: Enterococcus faecalis, ATCC11700
# Description: as §1, §2, §3, §4
# S. aureus Smith = details: Staphylococcus aureus
# Description: as §1, §2, §3, §4
# S. pneumoniae Type III = details: Streptococcus pneumoniae
# Description: as §1, §2, §3, §4
# S. pyogenes 7948-15 = details: Streptococcus pyogenes, 794815
# Description: as §1, §2, §3, §4
# S. epidermidis (17917) = details: Staphylococcus epidermidis, ATCC17917
# Description: as §1, §2, §3, §4
# S. aureus S-234 = details: Staphylococcus aureus, S234
# Description: as §1, §2, §3, §4
smiles,measurement,setting,value
"COc1cccc(OC)c1C(=O)N[C@@H]1C(=O)N2[C@@H]1SC(C)(C)[C@@H]2C(=O)O [Methicillin, 6-(2,6-dimethoxybenzamido)penicillanic acid sodium salt]",MBC,"S. epidermidis 1-3-H; S. epidermidis 1-3-H, read-out: MBC",4 µg/mL
same,MIC,"S. epidermidis 1-3-H; S. epidermidis 1-3-H, read-out: MIC",2 µg/mL
same,MBC,"S. faecalis 4510; S. faecalis 4510, read-out: MBC",64 µg/mL
same,MIC,"S. faecalis 4510; S. faecalis 4510, read-out: MIC",64 µg/mL
same,MBC,"S. aureus (25923); S. aureus ATCC No. 25923, read-out: MBC",2 µg/mL
same,MIC,"S. aureus (25923); S. aureus ATCC No. 25923, read-out: MIC",2 µg/mL
same,MBC,"S. aureus Glorgio; S. aureus Glorgio, read-out: MBC",4 µg/mL
same,MIC,"S. aureus Glorgio; S. aureus Glorgio, read-out: MIC",2 µg/mL
same,MBC,"S. aureus 24-81; S. aureus 24-81, read-out: MBC",2 µg/mL
same,MIC,"S. aureus 24-81; S. aureus 24-81, read-out: MIC",1 µg/mL
same,MBC,"S. aureus 59-81; S. aureus 59-81, read-out: MBC",64 µg/mL
same,MIC,"S. aureus 59-81; S. aureus 59-81, read-out: MIC",32 µg/mL
same,MBC,"S. aureus 4-81; S. aureus 4-81, read-out: MBC",2 µg/mL
same,MIC,"S. aureus 4-81; S. aureus 4-81, read-out: MIC",2 µg/mL
same,MBC,"S. epidermidis (12228); S. epidermidis ATCC No. 12228, read-out: MBC",4 µg/mL
same,MIC,"S. epidermidis (12228); S. epidermidis ATCC No. 12228, read-out: MIC",4 µg/mL
same,MBC,"S. aureus 21-81A; S. aureus 21-81A, read-out: MBC",1 µg/mL
same,MIC,"S. aureus 21-81A; S. aureus 21-81A, read-out: MIC",1 µg/mL
same,MBC,"S. aureus S-500; S. aureus S-500, read-out: MBC",32 µg/mL
same,MIC,"S. aureus S-500; S. aureus S-500, read-out: MIC",8 µg/mL
same,MBC,"S. pyogenes (89); S. pyogenes SWRI No. 89, read-out: MBC",≤ 0.06 µg/mL
same,MIC,"S. pyogenes (89); S. pyogenes SWRI No. 89, read-out: MIC",≤ 0.06 µg/mL
same,MBC,"S. epidermidis 1-5-H; S. epidermidis 1-5-H, read-out: MBC",2 µg/mL
same,MIC,"S. epidermidis 1-5-H; S. epidermidis 1-5-H, read-out: MIC",1 µg/mL
same,MBC,"S. pyogenes C203; S. pyogenes C203, read-out: MBC",0.125 µg/mL
same,MIC,"S. pyogenes C203; S. pyogenes C203, read-out: MIC",0.125 µg/mL
same,MBC,"S. aureus 39881; S. aureus 39881, read-out: MBC",> 125 µg/mL
same,MIC,"S. aureus 39881; S. aureus 39881, read-out: MIC",125 µg/mL
same,MBC,"S. aureus 41-81; S. aureus 41-81, read-out: MBC",1 µg/mL
same,MIC,"S. aureus 41-81; S. aureus 41-81, read-out: MIC",1 µg/mL
same,MBC,"S. epidermidis 2-1-B; S. epidermidis 2-1-B, read-out: MBC",2 µg/mL
same,MIC,"S. epidermidis 2-1-B; S. epidermidis 2-1-B, read-out: MIC",1 µg/mL
same,MBC,"S. faecalis (11700); S. faecalis ATCC No. 11700, read-out: MBC",64 µg/mL
same,MIC,"S. faecalis (11700); S. faecalis ATCC No. 11700, read-out: MIC",64 µg/mL
same,MBC,"S. aureus Smith; S. aureus Smith, read-out: MBC",1 µg/mL
same,MIC,"S. aureus Smith; S. aureus Smith, read-out: MIC",1 µg/mL
same,MBC,"S. pneumoniae Type III; S. pneumoniae Type III, read-out: MBC",0.125 µg/mL
same,MIC,"S. pneumoniae Type III; S. pneumoniae Type III, read-out: MIC",0.125 µg/mL
same,MBC,"S. pyogenes 7948-15; S. pyogenes 7948-15, read-out: MBC",0.125 µg/mL
same,MIC,"S. pyogenes 7948-15; S. pyogenes 7948-15, read-out: MIC",0.25 µg/mL
same,MBC,"S. epidermidis (17917); S. epidermidis ATCC No. 17917, read-out: MBC",4 µg/mL
same,MIC,"S. epidermidis (17917); S. epidermidis ATCC No. 17917, read-out: MIC",4 µg/mL
same,MBC,"S. aureus S-234; S. aureus S-234, read-out: MBC",32 µg/mL
same,MIC,"S. aureus S-234; S. aureus S-234, read-out: MIC",8 µg/mL
CN[C@H](CC(C)C)C(=O)N[C@H]1C(=O)N[C@@H](CC(N)=O)C(=O)N[C@H]2C(=O)N[C@H]3C(=O)N[C@H](C(=O)N[C@H](C(=O)O)c4cc(O)cc(O)c4-c4cc3ccc4O)[C@H](O)c3ccc(c(Cl)c3)Oc3cc2cc(c3O[C@@H]2O[C@H](CO)[C@@H](O)[C@H](O)[C@H]2O[C@H]2C[C@](C)(N)[C@H](O)[C@H](C)O2)Oc2ccc(cc2Cl)[C@H]1O [Vancomycin],MBC,S. epidermidis 1-3-H,1 µg/mL
same,MIC,S. epidermidis 1-3-H,1 µg/mL
same,MBC,S. faecalis 4510; 4510,> 125 µg/mL
same,MIC,S. faecalis 4510; 4510,2 µg/mL
same,MBC,S. aureus (25923),1 µg/mL
same,MIC,S. aureus (25923),1 µg/mL
same,MBC,S. aureus Glorgio,1 µg/mL
same,MIC,S. aureus Glorgio,1 µg/mL
same,MBC,S. aureus 24-81,0.5 µg/mL
same,MIC,S. aureus 24-81,0.5 µg/mL
same,MBC,S. aureus 59-81,1 µg/mL
same,MIC,S. aureus 59-81,1 µg/mL
same,MBC,S. aureus 4-81,0.5 µg/mL
same,MIC,S. aureus 4-81,0.5 µg/mL
same,MBC,S. epidermidis (12228),1 µg/mL
same,MIC,S. epidermidis (12228),1 µg/mL
same,MBC,S. aureus 21-81A,1 µg/mL
same,MIC,S. aureus 21-81A,0.5 µg/mL
same,MBC,S. aureus S-500,1 µg/mL
same,MIC,S. aureus S-500,1 µg/mL
same,MBC,S. pyogenes (89),16 µg/mL
same,MIC,S. pyogenes (89),16 µg/mL
same,MBC,S. epidermidis 1-5-H,2 µg/mL
same,MIC,S. epidermidis 1-5-H,2 µg/mL
same,MBC,S. pyogenes C203; C203,16 µg/mL
same,MIC,S. pyogenes C203; C203,16 µg/mL
same,MBC,S. aureus 39881; 39881,1 µg/mL
same,MIC,S. aureus 39881; 39881,1 µg/mL
same,MBC,S. aureus 41-81,1 µg/mL
same,MIC,S. aureus 41-81,1 µg/mL
same,MBC,S. epidermidis 2-1-B,2 µg/mL
same,MIC,S. epidermidis 2-1-B,1 µg/mL
same,MBC,S. faecalis (11700),> 125 µg/mL
same,MIC,S. faecalis (11700),1 µg/mL
same,MBC,S. aureus Smith,1 µg/mL
same,MIC,S. aureus Smith,1 µg/mL
same,MBC,S. pneumoniae Type III,16 µg/mL
same,MIC,S. pneumoniae Type III,≤ 0.06 µg/mL
same,MBC,S. pyogenes 7948-15,16 µg/mL
same,MIC,S. pyogenes 7948-15,16 µg/mL
same,MBC,S. epidermidis (17917),1 µg/mL
same,MIC,S. epidermidis (17917),1 µg/mL
same,MBC,S. aureus S-234,1 µg/mL
same,MIC,S. aureus S-234,1 µg/mL
